Experiments:
[1] = Measurement of mRNA encapsulation in lipid nanoparticles (Quant-iT Ribogreen); format: physicochemical; conditions: LNP cationic lipid/DSPC/cholesterol/stealth lipid, N:P 4:1, leptin mRNA
Description: All equipment and disposable supplies are certified free of RNase activity by the manufacturer or rendered RNase free by use of the RNaseZap reagent (LifeTechnologies). mRNA is encapsulated at a cationic lipid amine to mRNA phosphate (N:P) molar ratio of 4:1. Lipids (cationic lipid, DSPC, cholesterol and lipidated PEG or stealth lipid) are dissolved in ethanol. The molar ratios are 40:10:38:2, respectively. The mixture is sonicated briefly, then gently agitated for 5 minutes and then maintained at 37° C. until use. mRNA is exchanged into citrate buffer pH 5.8-6.0 by use of Amicon Ultra-15 centrifugal concentrators, and the final concentration is adjusted to 0.5 mg/ml and held at 37° C. until use. An equal volume of lipids in ethanol, mRNA in citrate buffer, and citrate buffer alone are drawn into disposable syringes. Tubing leading from syringes containing lipids and mRNA are attached to the T junction, and tubing leading from the syringe containing citrate buffer alone is paired with the tubing exiting the T-junction over a collection vessel containing a stir bar on an active stir plate. Syringes are placed in a syringe pump set to expel contents at a flow rate of 1 ml per minute.
The pump is activated, and the collected mRNA in lipid nanoparticles is transferred to SnakeSkin dialysis tubing (10,000 MWCO, Thermo Scientific). Material is dialyzed against RNAse- and pyrogen-free 1× phosphate buffered saline overnight at 4° C.
Percent encapsulation of mRNA in lipid nanoparticles is determined using the Quant-iT Ribogreen RNA Assay kit (Life Technologies). The LNP-mRNA suspension is assayed in buffer (mRNA outside the particle), and buffer plus Triton X-100 detergent (total mRNA). The difference calculated is the mRNA inside the particle. Prepare a 1000 ng/mL stock from the RNA provided in the kit and use this to generate a standard curve (0 ng/ml, 15.63-1000 ng/ml) in TE and TE+0.75% Triton X-100. Prepare LNP-mRNA samples in TE buffer and TE buffer+0.75% Triton X-100 with appropriate dilution so that reading is in the range of standard curve (400-2,000 fold). In a 384-well plate (Costar non-treated #3573) add 0.04 ml of standard (in duplicate) or sample (in triplicate) per well. Dilute Ribogreen reagent 240-fold in TE buffer and add 0.06 ml per well. Mix contents of wells and measure fluorescence (excitation=480 nm, emission=520 nm). Subtract background values (no RNA) from standard and test sample values and determine the concentrations of RNA in the samples using the standard curves. Determine the percent encapsulation of the sample by dividing the difference in concentrations between sample+triton and sample in buffer alone by the sample+triton concentration.

[2] = Encapsulation efficiency of RNA replicons (Quant-iT RiboGreen); format: physicochemical; conditions: LNP 40% cationic lipid, 10% DSPC, 48% cholesterol, 2% PEG-DMG; RNA replicon
Description: Briefly, lipids were dissolved in ethanol (2m1), a RNA replicon was dissolved in buffer (2 ml, 100 mM sodium citrate, pH 6) and these were mixed with 2 ml of buffer followed by 1 hour of equilibration. The mixture was then dialized overnight against 1×PBS. The resulting product contained liposomes, with ˜70-95% encapsulation efficiency.
The percentage of encapsulated RNA and RNA concentration were determined by Quant-iT RiboGreen RNA reagent kit (Invitrogen), following manufacturer's instructions. The ribosomal RNA standard provided in the kit was used to generate a standard curve. LNPs were diluted 10× or 100× in 1× TE buffer (from kit) before addition of the dye. Separately, LNPs were diluted 10× or 100× in 1× TE buffer containing 0.5% Triton X before addition of the dye (to disrupt the LNPs and thus to assay total RNA). Thereafter an equal amount of dye was added to each solution and then ˜180 μL of each solution after dye addition was loaded in duplicate into a 96 well tissue culture plate. The fluorescence (Ex 485 nm, Em 528 nm) was read on a microplate reader. All LNP formulations were dosed in vivo based on the encapsulated amount of RNA.

[3] = test system: RSV F protein; format: in vivo; conditions: Table 4; BALB/c mice, intramuscular, 1 ng vA375 replicon in LNP, days 0 and 21
[4] = Characterization of LNP formulations: Z average particle diameter and polydispersity index; format: physicochemical; conditions: LNP formulation; for Zav (nm): Z average particle diameter; for polydispersity: polydispersity index
Source text: The lipid nanoparticles have a size of about 1 to about 2,500 nm, about 1 to about 1,500 nm, about 1 to about 1,000 nm, in a sub-embodiment about 50 to about 600 nm, in a sub-embodiment about 50 to about 400 nm, in a sub-embodiment about 50 to about 250 nm, and in a sub-embodiment about 50 to about 150 nm. Unless indicated otherwise, all sizes referred to herein are the average sizes (diameters) of the fully formed nanoparticle, as measured by dynamic light scattering on a Malvern Zetasizer. The nanoparticle sample is diluted in phosphate buffered saline (PBS) so that the count rate is approximately 200-400 kcts. The data is presented as a weighted average of the intensity measure.

Row | Structure (SMILES) | % encapsulation (mRNA Leptin) [1] [%] | Encapsulation efficiency (RNA %) [2] [%] | Log10(IgG titer), 1 ng RNA (RSV-F), 2 weeks post 2nd immunization [3] | Zav (nm) [4] [nm] | polydispersity [4]
1 | CCCCC/C=C\C/C=C\CCCCCCCCOc1cc(COC(=O)CCCN(C)C)c(OCCCCCCCC/C=C\C/C=C\CCCCC)cc1C [Example 16, 4-methyl-2,5-bis((9Z,12Z)-octadeca-9,12-dien-1-yloxy)benzyl 4-(dimethylamino)butanoate] | 85.1 | 88.0 | 4.40 | 115.5 | 0.108
2 | CCCCC/C=C\C/C=C\CCCCCCCCOc1ccc(COC(=O)CCCN(C)C)c(OCCCCCCCC/C=C\C/C=C\CCCCC)c1 [Example 19, 2,4-bis((9Z,12Z)-octadeca-9,12-dienyloxy)benzyl 4-(dimethylamino)butanoate] | 84.3 | 79.9 | 4.68 | 133.2 | 0.074
